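1) Cells in 96-well plates. 2) Compound, 48 h, 5 concentrations. 3) Linear interpolation between surrounding doses. 4) Unreached endpoint = highest concentration. Definition used: TGI = concentration required for complete inhibition of growth.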
How the values were obtained:
Assay in all cases: NCI tumour cell line growth inhibition, 48 h
[1] = system: PC-3 prostate
[2] = system: BT-549 breast
[3] = system: SN12C renal
[4] = system: NCI/ADR-RES ovarian
[5] = system: HCT-15 colon
[6] = system: LOX IMVI melanoma
[7] = system: OVCAR-8 ovarian
[8] = system: NCI-H460 lung
[9] = system: UACC-257 melanoma
[10] = system: OVCAR-5 ovarian
[11] = system: M14 melanoma
[12] = system: SK-MEL-28 melanoma
[13] = system: SK-OV-3 ovarian
[14] = system: SW-620 colon
[15] = system: RXF 393 renal
[16] = system: T-47D breast
[17] = system: MDA-N
[18] = system: RPMI-8226 leukemia
[19] = system: A498 renal
[20] = system: HS 578T breast
[21] = system: MDA-MB-435
[22] = system: IGROV1 ovarian
[23] = system: KM12 colon
[24] = system: EKVX NSCLC
[25] = system: MALME-3M melanoma
[26] = system: MOLT-4 leukemia
[27] = system: HT29 colon
[28] = system: HCT-116 colon
[29] = system: 786-0 renal
[30] = system: SF-268 CNS
[31] = system: COLO 205 colon
[32] = system: SF-539 CNS
[33] = system: ACHN renal
[34] = system: OVCAR-3 ovarian
[35] = system: HL-60(TB) leukemia
[36] = system: SK-MEL-2 melanoma
[37] = system: CAKI-1 renal
[38] = system: U251 CNS
[39] = system: OVCAR-4 ovarian
[40] = system: NCI-H522 lung
[41] = system: UACC-62 melanoma
[42] = system: SK-MEL-5 melanoma
[43] = system: SNB-19 CNS
[44] = system: DU-145 prostate
[45] = system: HCC-2998 colon
[46] = system: NCI-H23 lung
[47] = system: A549 NSCLC
[48] = system: MDA-MB-231 breast
[49] = system: SF-295 CNS
[50] = system: TK-10 renal
[51] = system: MCF7 breast
[52] = system: CCRF-CEM leukemia
[53] = system: HOP-62 NSCLC
[54] = system: UO-31 renal
[55] = system: NCI-H226 lung
[56] = system: SR leukemia
[57] = system: K-562 leukemia
[58] = system: SNB-75 CNS

Measured: TGI

CC1(C)O[C@H]([C@H](O)c2nnc3ccc(Cl)nn23)[C@@H]([C@H]2COC(C)(C)O2)O1
not listed: [54] | [55] | [56] | [57] | [58]
> 100 µM: all other assays above

c1ccc(N=C(N2CCOCC2)N(CCN2CCOCC2)c2ccccc2)cc1
not listed: [4] | [10] | [19] | [33] | [35]
> 100 µM: all other assays above
